Test results from ChEMBL document CHEMBL1147224, “Resveratrol and two monomethylated stilbenes from Israeli Rumex bucephalophorus and their antioxidant potential” (J Nat Prod, 2003).

Test: ABTS radical scavenging activity assessed as trolox equivalent antioxidant capacity after 10 mins; call rule not given here
Assay type: physicochemical

For `COc1cc(O)cc(/C=C/c2ccc(O)cc2)c1`, the Activity was “Active”.

In the case of `COc1ccc(/C=C/c2cc(O)cc(O)c2)cc1` [RESVERATROL 4'-METHYL ETHER], the Activity was “Active”.

Work on `Oc1ccc(/C=C/c2cc(O)cc(O)c2)cc1` [RESVERATROL] yielded an Activity of 2.74.
